Tests used:
NCI-60 panel = NCI-60 panel test, median over the panel; format: cell-based; conditions: 60 cancer cell lines, 5-dose study
Method: FIG. 7. NCI-60 panel test. The effect of AOH1160 on growth of the NCI-60 panel, which consists of 60 cancer cell lines representing 9 major cancer types, was tested in a 5-dose study. Shown are the Log IC50 values determined for each cell line. […] This study was performed by the National Institute of Cancer.
As observed in FIG. 7, the effect of AOH1160 on growth of the NCI-60 panel, which consists of 60 cancer cell lines representing 9 major cancer types, was tested in a 5-dose study. Shown are the Log IC50 values determined for each cell line.

Stability in plasma = format: in vitro ADME
From the text: FIGS. 8A-8B. FIG. 8A depicts an illustration of AOH1160 degradation by amide cleavage in mouse plasma. FIG. 8B depicts the stability of AOH1160 in human and animal plasma. […] AOH1160 is stable in the plasma of canine, monkey, and human, as well as in the plasma of ES-1-deficient mice (Es1e/SCID).
AOH1160 was degraded in the plasma collected from a wildtype Balb/c mouse, see FIGS. 8A-8B. […] AOH1160 is stable in the plasma of canine, monkey, and human, as well as in the plasma of ES-1-deficient mice (Es1e/SCID).

7SM0032 = test: Cell growth, CellTitor-Glo assay, 72 h; format: cell-based, human; conditions: Homo sapiens; 7SM0032 (non-malignant)
Method: (§1) The human NB cell lines, SK-N-DZ, SK-N-BE(2)c, SK-N-AS, and LAN-5 obtained from the American Type Culture Collection (Rockville, MD), were cultured in DMEM with 10% fetal bovine serum (FBS), 100 units/ml penicillin, and 100 μg/ml streptomycin in the presence of 5% CO2 at 37° C. Human PBMCs from a healthy donor were purchased from Sanguine BioSciences (Valencia, CA) and grown in RPMI1640 with 10% FBS, 100 units/ml penicillin, 100 μg/ml streptomycin, and 10 ng/ml IL-2 in the presence of 5% CO2 at 37° C. Human embryonic progenitor cell line 7SM0032 was acquired from Millipore (Billerica, MA) and grown in the hEPM-1 Media Kit purchased from the same company. The plasmid pCBASce expresses the rare cutting I-SceI meganuclease. The U20S-derived cell lines, DR-GFP and EJ5-GFP, each contain a stably transfected reporter gene for DSB repair mediated by HR and end joining (EJ), respectively. These cell lines were cultured in DMEM medium with 10% FBS at 37° C. in the presence of 5% CO2.
(§2) To measure the effect of the compounds on cell growth, cells were seeded at 3×10^4/ml into a 96-well plate. Once attached, cells were treated with various concentrations of AOH1160 for 72 h. Cell growth was measured by the CellTitor-Glo assay (Promega, Madison, WI) according to the manufacturer's instructions. To measure apoptosis, cells were seeded at 1×10^5/ml onto a chamber slide. Once attached, cells were treated with the 500 nM AOH1160 for 24 h. Cells were fixed and analyzed by a TUNEL assay using the TMR red in situ cell death detection kit (Roche Diagnostics, Indianapolis, IN).

[1] = test system: MDA-MB-436 xenograft tumor; test: Xenograft of a triple-negative breast cancer cell line in Es1e/SCID mice; format: in vivo; conditions: 40 mg/kg once daily
Method: (§3) FIGS. 10A-10B. Inhibition of the growth xenograft tumor derived from a triple-negative breast cancer cell line (MDA-MB-436). Mice bearing xenograft tumors were given vehicle only or 40 mg/kg of AOH1160 through the study. Shown are tumor volumes (FIG. 10A) and mouse body weights (FIG. 10B) in the course of the study. The Es1e/SCID mice used in this study were treated by vehicle only (diamond) or by 40 mg/kg AOH1160 (square) once daily.
as §3, with “Inhibition” for “FIGS. 10A-10B. Inhibition”

SK-N-DZ = test: TUNEL assay / sub-G1 population (apoptosis); format: cell-based, human; conditions: NB cells (SK-N-DZ), 500 nM, 24 h
Method: as §2

Recombinant human PCNA = target: T1, Recombinant human PCNA (Homo sapiens, UniProt P12004); test: Saturation Transfer Difference (STD) NMR, competition with T3; format: binding; conditions: 1 μM PCNA, 30 μM T3, 3.2 μM AOH1160
T1 construct: made in house
Method: Recombinant human PCNA was purified and exchanged to D2O-based phosphate buffered saline (PBS), pH 7.2. […] The reference spectra were acquired under the same condition without PCNA. 5 uM DSS was used as an internal reference to determine the reported ligand concentration in solution. All NMR experiments were carried out at 25° C. on 600 MHz Bruker Avance equipped with 5 mm triple resonance cryogenic probe. STD (Saturation Transfer Difference) NMR spectra were acquired with transients ranging from 2560 to 32000, spectral width 8012 Hz with 24 k data points. The recycle delay was 2.8 s. Selective saturation was composed of 50 gauss shaped pulses at a field strength of 86 Hz, and the duration of each pulse is 50 ms with a 500 μs delay between pulses. The spin lock filter used to suppress protein signal was optimized to 60 ms at field strength of 5 kHz. The frequency for protein saturation was optimized to be 0.9 ppm; the ligand signals were not disturbed with the employed selective saturation condition at this frequency. The reference spectrum was acquired with saturation irradiated at −30 ppm. To eliminate potential artifacts, the saturation and reference experiments were acquired in an interleaved manner, and the finished experiments were separated into two 1D data for analysis. The peak integration was carried out with Bruker Topspin software. […]

[2] = test system: HR-mediated DSB repair in DR-GFP cells; test: DSB repair assay, DR-GFP reporter; format: cell-based; conditions: I-SceI-induced DSB, GFP-positive cells by flow cytometry
Method: as §1
DR-GFP and EJ5-GFP cell lines were seeded at 2.5×10^4 cells/cm^2 in a 12-well plate. […] The HR and EJ-mediated DSB repair, indicated by the restoration of a functional GFP gene in the respective cell lines, were quantified by measuring the relative abundance of GFP-positive cells by flow cytometry 3 days after transfection.

T1 sequence (P12004 whole entry): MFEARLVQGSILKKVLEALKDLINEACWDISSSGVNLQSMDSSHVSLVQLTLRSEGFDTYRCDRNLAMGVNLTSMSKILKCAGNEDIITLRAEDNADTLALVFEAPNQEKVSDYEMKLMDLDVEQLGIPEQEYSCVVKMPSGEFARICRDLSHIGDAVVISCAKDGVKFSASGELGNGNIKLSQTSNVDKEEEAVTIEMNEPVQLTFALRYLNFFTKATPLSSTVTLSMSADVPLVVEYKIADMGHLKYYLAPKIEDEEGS

O=C(CNC(=O)c1cccc2ccccc12)Nc1ccccc1Oc1ccccc1 [AOH1160]
IC50 (NCI-60 panel): ~320 nM | stability in plasma (Stability in plasma; canine plasma): stable | stability in plasma (Stability in plasma; human plasma): stable | stability in plasma (Stability in plasma; monkey plasma): stable | stability in plasma (Stability in plasma; plasma of ES-1-deficient mice (Es1e/SCID)): stable | stability in plasma (Stability in plasma; wildtype Balb/c mouse plasma): quickly degraded | IC50 (7SM0032): > 20000 nM | weight loss [1]: caused no significant weight loss | tumor growth (tumor volumes) ([1]; vs vehicle): inhibited tumor growth | apoptosis (SK-N-DZ): apoptosis as indicated by the increase in the sub-G1 population (FIG. 2A) and TUNEL positivity | competition with T3 for binding to PCNA (Recombinant human PCNA): competes with T3 for binding to PCNA | HR-mediated DSB repair [2]: blocks DNA repair in DR-GFP
